This is an account of results in ChEMBL document CHEMBL5678803, “Selective blockade of TRPA1 channel attenuates pathological pain without altering noxious cold sensation or body temperature regulation” (Pain, 2011).

Data set [1] is described as follows: Toxicity in CD1 mouse assessed as effect on total forepaw shivering response at 5 degreeC at 62.1 mg/kg, po measured after 4 mins by noxious cold plate assay. It counts as organism-based. The conditions noted are these: in vivo.
Data set [2] deals with T1, Transient receptor potential cation channel subfamily A member 1 (Rattus norvegicus, UniProt Q6RI86). The data set is described as follows: Antagonist activity at GFP-tagged rat TRPA1 transfected in HEK293F cells assessed as reduction in AITC-induced inward current at -60 mV holding potential by electrophysiological recordings. The format is cell-based.
T1 sequence (Q6RI86 whole entry): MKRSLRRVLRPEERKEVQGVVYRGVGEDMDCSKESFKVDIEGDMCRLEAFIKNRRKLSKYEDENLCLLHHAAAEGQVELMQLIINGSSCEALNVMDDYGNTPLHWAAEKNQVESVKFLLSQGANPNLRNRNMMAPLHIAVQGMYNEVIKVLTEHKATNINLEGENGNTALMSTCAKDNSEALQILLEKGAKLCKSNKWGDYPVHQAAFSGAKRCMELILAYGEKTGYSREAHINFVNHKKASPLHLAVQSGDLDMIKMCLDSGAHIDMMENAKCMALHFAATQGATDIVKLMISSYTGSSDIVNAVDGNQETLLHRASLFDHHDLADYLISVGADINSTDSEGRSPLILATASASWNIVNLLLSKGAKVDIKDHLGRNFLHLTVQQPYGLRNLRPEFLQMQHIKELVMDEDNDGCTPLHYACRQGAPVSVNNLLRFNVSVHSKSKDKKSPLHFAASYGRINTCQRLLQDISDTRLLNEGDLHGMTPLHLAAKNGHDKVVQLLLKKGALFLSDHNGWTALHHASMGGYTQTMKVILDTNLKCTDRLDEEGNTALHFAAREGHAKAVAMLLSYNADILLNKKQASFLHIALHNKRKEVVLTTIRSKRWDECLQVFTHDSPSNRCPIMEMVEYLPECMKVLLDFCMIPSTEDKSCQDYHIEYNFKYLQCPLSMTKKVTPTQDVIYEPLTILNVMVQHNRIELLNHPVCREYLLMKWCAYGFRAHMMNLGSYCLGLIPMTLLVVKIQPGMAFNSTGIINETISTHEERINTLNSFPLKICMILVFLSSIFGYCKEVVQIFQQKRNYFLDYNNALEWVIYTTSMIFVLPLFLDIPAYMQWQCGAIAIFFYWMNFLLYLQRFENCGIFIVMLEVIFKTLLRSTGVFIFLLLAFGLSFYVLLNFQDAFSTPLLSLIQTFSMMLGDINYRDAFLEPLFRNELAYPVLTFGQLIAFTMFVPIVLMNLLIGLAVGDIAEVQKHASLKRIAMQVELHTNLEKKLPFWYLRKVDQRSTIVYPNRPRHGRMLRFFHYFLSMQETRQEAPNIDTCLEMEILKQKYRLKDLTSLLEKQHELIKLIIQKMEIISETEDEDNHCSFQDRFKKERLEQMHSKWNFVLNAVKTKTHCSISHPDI
A short description of data set [3]: Ratio of drug concentration in rat brain to plasma at 2 mg/kg, po. It counts as ADME, organism-based. The conditions noted are these: read-out: BPR.
The target in data set [4] is Transient receptor potential cation channel subfamily A member 1 (Mus musculus, UniProt Q8BLA8). The data set is described as follows: Antagonist activity at mouse TRPA1 expressed in HEK293F cells assessed as reduction in AITC-induced increase in intracellular Ca2+ level by FLIPR-based Ca2+ assay. It counts as cell-based.
Transient receptor potential cation channel subfamily A member 1 (Mus musculus, UniProt Q8BLA8), sequence (Q8BLA8 whole entry): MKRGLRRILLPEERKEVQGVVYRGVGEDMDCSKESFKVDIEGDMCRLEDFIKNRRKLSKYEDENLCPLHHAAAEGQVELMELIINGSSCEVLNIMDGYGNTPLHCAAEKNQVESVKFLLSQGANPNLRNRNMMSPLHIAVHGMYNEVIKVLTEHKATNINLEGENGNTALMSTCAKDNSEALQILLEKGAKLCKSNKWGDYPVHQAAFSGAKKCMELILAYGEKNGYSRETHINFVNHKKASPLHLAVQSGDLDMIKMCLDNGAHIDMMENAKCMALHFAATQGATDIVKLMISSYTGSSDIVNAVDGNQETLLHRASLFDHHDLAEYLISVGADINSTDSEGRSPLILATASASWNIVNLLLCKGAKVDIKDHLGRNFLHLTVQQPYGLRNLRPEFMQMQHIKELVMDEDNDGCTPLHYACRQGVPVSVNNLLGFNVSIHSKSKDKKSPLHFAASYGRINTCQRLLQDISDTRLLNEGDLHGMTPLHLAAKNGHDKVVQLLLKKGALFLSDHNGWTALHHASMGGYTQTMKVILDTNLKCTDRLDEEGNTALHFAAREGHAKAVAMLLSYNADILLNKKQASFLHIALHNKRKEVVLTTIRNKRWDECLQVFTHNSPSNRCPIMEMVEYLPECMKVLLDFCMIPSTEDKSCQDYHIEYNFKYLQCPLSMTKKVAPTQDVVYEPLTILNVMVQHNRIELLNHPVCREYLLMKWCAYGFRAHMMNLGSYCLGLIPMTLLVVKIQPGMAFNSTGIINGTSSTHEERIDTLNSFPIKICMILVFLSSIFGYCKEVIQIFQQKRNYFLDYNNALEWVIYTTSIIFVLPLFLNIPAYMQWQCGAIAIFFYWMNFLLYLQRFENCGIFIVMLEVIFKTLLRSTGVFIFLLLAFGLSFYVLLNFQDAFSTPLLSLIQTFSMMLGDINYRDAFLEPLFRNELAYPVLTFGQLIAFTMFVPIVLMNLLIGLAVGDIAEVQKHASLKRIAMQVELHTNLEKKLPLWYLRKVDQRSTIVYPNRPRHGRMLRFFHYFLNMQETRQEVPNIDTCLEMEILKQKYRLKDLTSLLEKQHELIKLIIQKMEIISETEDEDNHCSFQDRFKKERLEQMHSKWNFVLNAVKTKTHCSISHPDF
For data set [5], the target named is T2, Transient receptor potential cation channel subfamily V member 2 (Rattus norvegicus) (UniProt Q9WUD2).
T2 sequence (whole entry): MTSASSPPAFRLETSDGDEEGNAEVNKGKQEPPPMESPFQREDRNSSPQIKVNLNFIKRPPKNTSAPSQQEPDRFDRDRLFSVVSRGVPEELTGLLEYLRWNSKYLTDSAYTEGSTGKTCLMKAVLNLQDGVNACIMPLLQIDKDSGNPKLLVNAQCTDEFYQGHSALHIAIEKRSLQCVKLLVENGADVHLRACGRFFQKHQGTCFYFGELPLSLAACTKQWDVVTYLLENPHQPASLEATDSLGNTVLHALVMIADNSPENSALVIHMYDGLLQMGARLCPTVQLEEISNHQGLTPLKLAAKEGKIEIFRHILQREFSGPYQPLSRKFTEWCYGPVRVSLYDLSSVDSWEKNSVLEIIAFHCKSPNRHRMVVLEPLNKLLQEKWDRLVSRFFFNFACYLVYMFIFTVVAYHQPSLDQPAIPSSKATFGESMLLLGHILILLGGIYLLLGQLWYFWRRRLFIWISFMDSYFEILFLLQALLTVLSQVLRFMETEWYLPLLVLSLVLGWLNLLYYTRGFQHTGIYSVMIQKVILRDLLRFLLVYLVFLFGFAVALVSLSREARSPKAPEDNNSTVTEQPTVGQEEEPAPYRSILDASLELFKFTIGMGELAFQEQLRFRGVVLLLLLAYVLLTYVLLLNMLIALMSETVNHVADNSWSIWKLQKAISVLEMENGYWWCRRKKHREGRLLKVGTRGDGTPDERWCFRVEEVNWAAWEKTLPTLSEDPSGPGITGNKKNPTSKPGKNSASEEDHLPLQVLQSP
Nature of the data set: Activation of rat TRPV2 expressed in HEK293F cells upto 100 micromol/L. It counts as cell-based. As to conditions: dose <= 100.0 µmol/L.

Data set [6] deals with Transient receptor potential cation channel subfamily M member 8 (Homo sapiens, UniProt Q7Z2W7). The data set is described as follows: Activation of human TRPM8 expressed in HEK293F cells upto 100 micromol/L. It counts as cell-based. As to conditions: dose <= 100.0 µmol/L.
Transient receptor potential cation channel subfamily M member 8, sequence (Q7Z2W7 whole entry, looked up): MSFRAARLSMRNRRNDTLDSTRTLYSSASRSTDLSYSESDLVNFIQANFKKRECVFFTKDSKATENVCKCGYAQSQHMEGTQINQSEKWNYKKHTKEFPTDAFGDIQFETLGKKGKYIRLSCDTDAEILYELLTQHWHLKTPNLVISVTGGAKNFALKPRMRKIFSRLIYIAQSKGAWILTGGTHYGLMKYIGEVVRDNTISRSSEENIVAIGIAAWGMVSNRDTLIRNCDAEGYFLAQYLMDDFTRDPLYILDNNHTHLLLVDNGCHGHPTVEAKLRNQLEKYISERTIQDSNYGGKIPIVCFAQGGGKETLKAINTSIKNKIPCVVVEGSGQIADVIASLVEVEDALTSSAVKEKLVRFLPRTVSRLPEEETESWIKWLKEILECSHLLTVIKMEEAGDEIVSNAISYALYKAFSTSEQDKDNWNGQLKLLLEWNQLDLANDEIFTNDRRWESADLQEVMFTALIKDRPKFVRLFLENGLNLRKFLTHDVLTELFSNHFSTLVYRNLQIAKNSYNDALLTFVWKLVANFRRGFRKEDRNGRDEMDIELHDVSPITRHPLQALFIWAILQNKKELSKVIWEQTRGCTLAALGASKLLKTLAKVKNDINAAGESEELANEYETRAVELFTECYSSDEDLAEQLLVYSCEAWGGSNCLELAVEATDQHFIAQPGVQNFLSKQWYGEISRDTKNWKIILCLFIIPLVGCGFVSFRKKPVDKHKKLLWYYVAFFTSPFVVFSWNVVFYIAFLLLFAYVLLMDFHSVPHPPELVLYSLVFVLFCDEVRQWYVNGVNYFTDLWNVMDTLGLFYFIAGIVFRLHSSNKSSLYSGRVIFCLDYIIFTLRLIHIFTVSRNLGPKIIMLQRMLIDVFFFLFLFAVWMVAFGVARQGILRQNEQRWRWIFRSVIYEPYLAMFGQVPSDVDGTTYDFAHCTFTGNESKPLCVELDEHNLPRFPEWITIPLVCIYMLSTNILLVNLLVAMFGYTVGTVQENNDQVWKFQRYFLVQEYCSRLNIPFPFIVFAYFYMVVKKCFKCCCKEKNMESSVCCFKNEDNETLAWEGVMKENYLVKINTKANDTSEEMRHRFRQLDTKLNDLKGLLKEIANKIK
In a further data set the test system is Rattus norvegicus. The data set is described as follows: Antiallodynic activity in spinal nerve ligation-induced neuropathic pain Sprague-Dawley rat model assessed as attenuation of mechanical allodynia at 6.2 to 62.1 mg/kg, po administered with compound for 1 hrs and measured 10 to 14 days after surgery. As to conditions: dose 6.2-62.1 mg/kg, time 241-337 hrs. It counts as functional, organism-based.

Data set [7] addresses Transient receptor potential cation channel subfamily V member 4 (Homo sapiens, UniProt Q9HBA0). Nature of the data set: Antagonist activity at human TRPV4 expressed in HEK293F cells assessed as inhibition of mOsmo-induced TRPV4 channel activation by FLIPR-based Ca2+ assay relative to control. As to conditions: concentration not given here. It counts as cell-based.
The target in data set [8] is Transient receptor potential cation channel subfamily A member 1 (Rattus norvegicus) (UniProt Q6RI86). The data set is described as follows: Antagonist activity at endogenous TRPA1 in rat DRG neurons assessed as blockade of capsaicin-induced CGRP release at 50 micromol/L. As to conditions: DRG neuron, dose 50.0 µmol/L. It counts as cell-based.
Transient receptor potential cation channel subfamily A member 1 (Rattus norvegicus), sequence (Q6RI86 whole entry): as the sequence (Q6RI86 whole entry) above
The nature of data set [9]: Toxicity in Sprague-Dawley rat assessed as effect on heart rate. As to conditions: in vivo.
The nature of data set [10]: Drug concentration in rat at 6.2 mg/kg, po measured after 60 mins. It counts as ADME, organism-based. As to conditions: in vivo, read-out: Drug uptake.
Data set [11] in a line: Stability of compound in aqueous tetrahydrofuran buffer at pH 7.5 assessed as compound remaining incubated for 16 hrs in presence of glutathione by nuclear magnetic resonance spectroscopy based LC-MS analysis. The conditions noted are these: aqueous tetrahydrofuran buffer with glutathione, read-out: Stability. It counts as physicochemical.
Data set [12] can be described thus: Effect on locomotory activity in Sprague-Dawley rat model of mustard oil-induced nocifensive response at 6.2 to 62.1 mg/kg, po administered for 1 hrs. The format is toxicity, organism-based. As to conditions: in vivo, dose 6.2-62.1 mg/kg.
Data set [13] is described as follows: Toxicity in CD1 mouse assessed as effect on first jump latency at 0 degreeC at 62.1 mg/kg, po measured after 4 mins by noxious cold plate assay. The format is organism-based. The conditions noted are these: in vivo.
Data set [14] in a line: Toxicity in Sprague-Dawley rat assessed as effect on tail withdrawal latency to hot water immersion at 55 degreeC at 62.1 mg/kg, po by tail immersion test. The format is organism-based. The conditions noted are these: in vivo.
Data set [15] concerns the target Transient receptor potential cation channel subfamily V member 1 (Homo sapiens, UniProt Q8NER1). The data set is described as follows: Antagonist activity at human TRPV1 expressed in HEK293F cells assessed as inhibition of capsaicin-induced TRPV1 channel activation by FLIPR-based Ca2+ assay relative to control. It counts as cell-based. The conditions noted are these: concentration not given here.

The target of data set [16] is T3, Transient receptor potential cation channel subfamily V member 2 (Rattus norvegicus, UniProt Q9WUD2).
T3 sequence (Q9WUD2 whole entry): T2 sequence (whole entry)
Nature of the data set: Antagonist activity at rat TRPV2 expressed in HEK293F cells assessed as inhibition of 2APB-induced increase in intracellular Ca2+ level by FLIPR-based Ca2+ assay. The format is cell-based.

The target of data set [17] is T1, Transient receptor potential cation channel subfamily A member 1. The data set is described as follows: Antagonist activity at rat TRPA1 expressed in HEK293F cells assessed as reduction in AITC-induced increase in intracellular Ca2+ level by FLIPR-based Ca2+ assay. It counts as cell-based.

Active and inactive are the calls of the source. The rule behind the calls is not given here.

Transient receptor potential cation channel subfamily V member 1, sequence (Q8NER1 whole entry): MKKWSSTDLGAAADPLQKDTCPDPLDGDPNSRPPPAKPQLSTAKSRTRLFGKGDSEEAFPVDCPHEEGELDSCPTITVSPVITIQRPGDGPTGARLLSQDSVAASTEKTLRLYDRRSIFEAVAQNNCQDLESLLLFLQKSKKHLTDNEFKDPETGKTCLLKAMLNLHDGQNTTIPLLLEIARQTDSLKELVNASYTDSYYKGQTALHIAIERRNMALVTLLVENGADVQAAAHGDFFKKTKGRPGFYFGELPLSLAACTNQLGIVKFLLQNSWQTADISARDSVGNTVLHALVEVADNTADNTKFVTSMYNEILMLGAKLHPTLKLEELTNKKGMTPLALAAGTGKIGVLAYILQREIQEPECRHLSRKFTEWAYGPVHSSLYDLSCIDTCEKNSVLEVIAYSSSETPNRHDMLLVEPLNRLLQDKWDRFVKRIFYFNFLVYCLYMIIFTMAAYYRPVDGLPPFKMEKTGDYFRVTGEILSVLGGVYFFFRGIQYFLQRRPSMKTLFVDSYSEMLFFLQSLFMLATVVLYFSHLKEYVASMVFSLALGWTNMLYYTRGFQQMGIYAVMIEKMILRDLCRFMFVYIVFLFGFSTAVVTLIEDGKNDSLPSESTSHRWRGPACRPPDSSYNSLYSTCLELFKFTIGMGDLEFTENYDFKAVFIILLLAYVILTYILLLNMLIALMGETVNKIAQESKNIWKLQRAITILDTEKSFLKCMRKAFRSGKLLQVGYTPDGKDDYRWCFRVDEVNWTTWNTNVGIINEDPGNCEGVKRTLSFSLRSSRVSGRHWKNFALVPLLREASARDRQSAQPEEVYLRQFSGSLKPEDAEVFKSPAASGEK
Transient receptor potential cation channel subfamily V member 4, sequence (Q9HBA0 whole entry): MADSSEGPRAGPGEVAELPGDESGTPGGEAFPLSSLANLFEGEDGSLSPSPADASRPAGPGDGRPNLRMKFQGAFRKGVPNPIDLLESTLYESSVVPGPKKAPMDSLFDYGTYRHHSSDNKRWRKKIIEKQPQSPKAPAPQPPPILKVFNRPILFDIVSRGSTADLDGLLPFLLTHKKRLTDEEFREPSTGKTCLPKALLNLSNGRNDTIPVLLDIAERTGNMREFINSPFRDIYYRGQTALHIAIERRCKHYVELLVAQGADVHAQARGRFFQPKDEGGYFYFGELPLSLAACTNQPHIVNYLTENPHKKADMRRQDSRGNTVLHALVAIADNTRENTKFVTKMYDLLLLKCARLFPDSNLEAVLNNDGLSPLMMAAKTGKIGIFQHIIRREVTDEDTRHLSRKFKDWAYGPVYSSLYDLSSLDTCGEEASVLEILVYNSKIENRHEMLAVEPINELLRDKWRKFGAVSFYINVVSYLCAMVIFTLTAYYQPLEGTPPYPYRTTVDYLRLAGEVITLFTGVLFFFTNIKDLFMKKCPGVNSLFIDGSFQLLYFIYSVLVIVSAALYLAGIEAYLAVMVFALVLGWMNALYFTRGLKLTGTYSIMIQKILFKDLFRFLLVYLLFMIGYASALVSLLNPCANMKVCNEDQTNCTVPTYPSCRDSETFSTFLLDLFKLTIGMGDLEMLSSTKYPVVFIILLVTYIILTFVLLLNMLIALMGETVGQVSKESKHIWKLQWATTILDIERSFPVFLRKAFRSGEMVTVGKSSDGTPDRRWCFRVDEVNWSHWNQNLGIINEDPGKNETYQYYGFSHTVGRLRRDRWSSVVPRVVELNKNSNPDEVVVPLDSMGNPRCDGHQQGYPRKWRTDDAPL

The term IC50 denotes the concentration needed to halve the response being measured. A word on the inhibition: it is how much of the control response was suppressed. As for `CCC(=N\O)/C(C)=C/c1ccc(F)cc1` [A-079], the Activity entry in [1], in [9], in data set [12], in [13] and in data set [14] was “Non-Toxic” throughout. The IC50 is 101 nM in [2], 296 nM in data set [4], more than 100000 nM in [16] and 289 nM in data set [17]. Moreover, the Kp in data set [3] is 0.75. Also, the result (in data set [5]; in [6]; in the data set with Rattus norvegicus; in [8]) was inactive. The inhibition in data set [7] and in [15] was less than 20% in each case. The concentration at 1 h in [10] is 1540 nM. For the same compound, in data set [11], the remaining at 16 h is more than 95%.
